Data taken from ChEMBL document CHEMBL4507271, “Data for DCP probe BAY-707” (2021).

Experiments:
[1] = target: Muscarinic acetylcholine receptor M2 (Homo sapiens) (UniProt P08172); conditions: Compound concentration 10.0 uM
[2] = target: 5-hydroxytryptamine receptor 2B (Homo sapiens) (UniProt P41595); conditions: Compound concentration 10.0 uM
[3] = target: Muscarinic acetylcholine receptor M3 (Homo sapiens) (UniProt P20309); conditions: Compound concentration 10.0 uM
[4] = target: Histamine H3 receptor (Homo sapiens) (UniProt Q9Y5N1); conditions: Compound concentration 10.0 uM
[5] = target: Histamine H4 receptor (Homo sapiens) (UniProt Q9H3N8); conditions: Compound concentration 10.0 uM
Histamine H4 receptor (Homo sapiens), sequence (Q9H3N8 whole entry): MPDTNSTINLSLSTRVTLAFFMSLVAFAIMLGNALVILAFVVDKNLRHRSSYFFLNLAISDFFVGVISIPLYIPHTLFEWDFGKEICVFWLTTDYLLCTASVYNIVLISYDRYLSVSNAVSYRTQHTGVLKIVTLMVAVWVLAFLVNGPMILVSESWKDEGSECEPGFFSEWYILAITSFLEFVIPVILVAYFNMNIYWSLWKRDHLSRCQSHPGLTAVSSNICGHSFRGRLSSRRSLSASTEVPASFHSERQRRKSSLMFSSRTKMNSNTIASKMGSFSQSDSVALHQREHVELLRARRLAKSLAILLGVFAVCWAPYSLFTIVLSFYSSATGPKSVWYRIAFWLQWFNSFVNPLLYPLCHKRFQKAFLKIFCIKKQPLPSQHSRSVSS

[6] = target: Sigma non-opioid intracellular receptor 1 (Homo sapiens) (UniProt Q99720); conditions: Compound concentration 10.0 uM
Sigma non-opioid intracellular receptor 1 (Homo sapiens), sequence (Q99720 whole entry): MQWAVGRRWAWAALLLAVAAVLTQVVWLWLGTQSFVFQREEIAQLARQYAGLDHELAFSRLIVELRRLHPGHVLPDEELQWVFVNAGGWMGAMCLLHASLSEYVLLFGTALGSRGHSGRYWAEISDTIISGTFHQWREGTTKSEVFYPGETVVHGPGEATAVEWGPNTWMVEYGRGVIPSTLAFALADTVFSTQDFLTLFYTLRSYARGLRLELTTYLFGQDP

D(4) dopamine receptor = D(4) dopamine receptor (Homo sapiens, UniProt P21917); assay: GPCRScan assay: inhibition of D4; set-up: radioligand conc. used [nm] 0.6 – 1.7, parental cells Stable HEK
[7] = target: Beta-3 adrenergic receptor (Homo sapiens) (UniProt P13945); conditions: Compound concentration 10.0 uM
[8] = target: 5-hydroxytryptamine receptor 1E (Homo sapiens) (UniProt P28566); conditions: Compound concentration 10.0 uM
5-hydroxytryptamine receptor 1E (Homo sapiens), sequence (P28566 whole entry): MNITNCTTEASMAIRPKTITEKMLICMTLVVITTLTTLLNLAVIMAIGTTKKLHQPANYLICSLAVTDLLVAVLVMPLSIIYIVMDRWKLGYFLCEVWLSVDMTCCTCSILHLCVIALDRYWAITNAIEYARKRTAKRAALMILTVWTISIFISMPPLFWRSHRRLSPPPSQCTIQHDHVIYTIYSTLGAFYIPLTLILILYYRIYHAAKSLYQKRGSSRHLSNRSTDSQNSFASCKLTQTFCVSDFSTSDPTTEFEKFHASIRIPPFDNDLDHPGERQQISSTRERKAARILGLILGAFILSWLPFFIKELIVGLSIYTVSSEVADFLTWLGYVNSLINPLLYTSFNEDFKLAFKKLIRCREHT

[9] = target: Alpha-1D adrenergic receptor (Homo sapiens) (UniProt P25100); conditions: Compound concentration 10.0 uM
[10] = target: Alpha-2B adrenergic receptor (Homo sapiens) (UniProt P18089); conditions: Compound concentration 10.0 uM
[11] = target: Oxidized purine nucleoside triphosphate hydrolase (Homo sapiens, UniProt P36639); assay: PPiLight Biochemical Assay
[12] = target: Alpha-2A adrenergic receptor (Homo sapiens) (UniProt P08913); conditions: Compound concentration 10.0 uM
Alpha-2A adrenergic receptor (Homo sapiens), sequence (P08913 whole entry): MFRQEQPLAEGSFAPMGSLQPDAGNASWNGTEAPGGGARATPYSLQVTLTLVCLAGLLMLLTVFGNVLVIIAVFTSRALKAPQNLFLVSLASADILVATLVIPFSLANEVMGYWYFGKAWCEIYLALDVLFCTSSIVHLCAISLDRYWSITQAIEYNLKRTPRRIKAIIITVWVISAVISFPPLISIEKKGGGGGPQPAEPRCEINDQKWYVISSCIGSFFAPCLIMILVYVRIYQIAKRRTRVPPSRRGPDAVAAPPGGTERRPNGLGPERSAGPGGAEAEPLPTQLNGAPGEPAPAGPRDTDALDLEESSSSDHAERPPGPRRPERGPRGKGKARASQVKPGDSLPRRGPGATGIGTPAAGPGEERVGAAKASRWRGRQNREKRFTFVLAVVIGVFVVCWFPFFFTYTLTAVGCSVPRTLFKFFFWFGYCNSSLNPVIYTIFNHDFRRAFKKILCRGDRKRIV

[13] = target: 5-hydroxytryptamine receptor 1A (Homo sapiens) (UniProt P08908); conditions: Compound concentration 10.0 uM
[14] = target: 5-hydroxytryptamine receptor 3A (Homo sapiens) (UniProt P46098); conditions: Compound concentration 10.0 uM
[15] = target: Alpha-1B adrenergic receptor (Homo sapiens) (UniProt P35368); conditions: Compound concentration 10.0 uM
Alpha-1B adrenergic receptor (Homo sapiens), sequence (P35368 whole entry): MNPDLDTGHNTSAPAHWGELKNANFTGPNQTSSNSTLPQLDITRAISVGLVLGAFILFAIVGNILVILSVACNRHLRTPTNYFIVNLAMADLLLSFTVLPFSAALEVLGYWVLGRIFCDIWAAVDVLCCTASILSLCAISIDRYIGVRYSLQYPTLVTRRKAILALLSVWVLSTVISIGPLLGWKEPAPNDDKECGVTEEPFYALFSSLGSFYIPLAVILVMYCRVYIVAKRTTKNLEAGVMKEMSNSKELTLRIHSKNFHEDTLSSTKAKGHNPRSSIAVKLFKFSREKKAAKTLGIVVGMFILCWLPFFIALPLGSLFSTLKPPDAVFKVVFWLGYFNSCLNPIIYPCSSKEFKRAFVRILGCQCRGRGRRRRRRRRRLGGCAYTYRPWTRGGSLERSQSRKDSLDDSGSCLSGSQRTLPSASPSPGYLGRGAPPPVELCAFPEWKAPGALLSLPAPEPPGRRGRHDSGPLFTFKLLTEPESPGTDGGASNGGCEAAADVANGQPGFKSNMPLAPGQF

[16] = target: Histamine H2 receptor (Homo sapiens) (UniProt P25021); conditions: Compound concentration 10.0 uM
Histamine H2 receptor (Homo sapiens), sequence (P25021 whole entry): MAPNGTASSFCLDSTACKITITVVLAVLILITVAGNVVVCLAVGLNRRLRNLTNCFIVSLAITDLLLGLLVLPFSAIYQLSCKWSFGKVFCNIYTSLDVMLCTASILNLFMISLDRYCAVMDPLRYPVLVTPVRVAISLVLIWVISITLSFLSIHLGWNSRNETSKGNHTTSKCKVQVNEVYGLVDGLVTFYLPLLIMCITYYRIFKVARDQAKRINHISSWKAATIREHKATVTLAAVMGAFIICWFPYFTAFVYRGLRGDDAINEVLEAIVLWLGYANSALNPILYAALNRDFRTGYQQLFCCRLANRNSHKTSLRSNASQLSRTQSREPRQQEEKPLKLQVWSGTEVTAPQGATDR

[17] = target: Kappa-type opioid receptor (Homo sapiens) (UniProt P41145); conditions: Compound concentration 10.0 uM
Kappa-type opioid receptor (Homo sapiens), sequence (P41145 whole entry): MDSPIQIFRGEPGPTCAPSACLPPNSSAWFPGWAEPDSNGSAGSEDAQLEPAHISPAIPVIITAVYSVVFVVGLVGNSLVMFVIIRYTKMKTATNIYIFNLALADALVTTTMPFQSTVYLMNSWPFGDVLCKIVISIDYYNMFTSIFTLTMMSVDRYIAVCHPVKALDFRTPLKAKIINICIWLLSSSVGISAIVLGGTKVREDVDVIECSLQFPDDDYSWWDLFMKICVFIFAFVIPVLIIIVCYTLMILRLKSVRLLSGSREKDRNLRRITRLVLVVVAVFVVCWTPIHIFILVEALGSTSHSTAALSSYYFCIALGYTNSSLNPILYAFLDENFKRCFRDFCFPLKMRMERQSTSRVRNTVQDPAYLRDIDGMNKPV

[18] = target: 5-hydroxytryptamine receptor 1D (Homo sapiens) (UniProt P28221); conditions: Compound concentration 10.0 uM
Rattus norvegicus = species on record: Rattus norvegicus; conditions: Compound concentration 10.0 uM
[19] = target: GABA-A receptor; anion channel; assay: GPCRScan assay: inhibition of GABAA/BZP; format: protein-complex assay, Rattus norvegicus; set-up: radioligand conc. used [nm] 0.6 – 4.0, parental cells brain tissue
[20] = target: Alpha-2C adrenergic receptor (Homo sapiens) (UniProt P18825); conditions: Compound concentration 10.0 uM
[21] = target: D(3) dopamine receptor (Homo sapiens) (UniProt P35462); conditions: Compound concentration 10.0 uM
D(3) dopamine receptor (Homo sapiens), sequence (P35462 whole entry): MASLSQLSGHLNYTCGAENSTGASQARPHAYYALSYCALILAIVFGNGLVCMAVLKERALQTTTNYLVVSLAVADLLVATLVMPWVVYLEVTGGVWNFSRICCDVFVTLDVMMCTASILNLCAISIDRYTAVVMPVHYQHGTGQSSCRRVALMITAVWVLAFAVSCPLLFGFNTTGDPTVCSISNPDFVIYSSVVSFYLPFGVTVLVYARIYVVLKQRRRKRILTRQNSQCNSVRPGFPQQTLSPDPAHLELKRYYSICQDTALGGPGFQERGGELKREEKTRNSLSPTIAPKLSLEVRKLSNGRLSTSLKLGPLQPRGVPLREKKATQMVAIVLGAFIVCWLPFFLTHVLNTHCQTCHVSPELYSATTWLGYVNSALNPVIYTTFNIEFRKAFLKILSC

[22] = target: 5-hydroxytryptamine receptor 7 (Homo sapiens) (UniProt P34969); conditions: Compound concentration 10.0 uM
[23] = target: D(1A) dopamine receptor (Homo sapiens) (UniProt P21728); conditions: Compound concentration 10.0 uM
[24] = target: D(4) dopamine receptor (Homo sapiens) (UniProt P21917); conditions: Compound concentration 10.0 uM
[25] = target: 5-hydroxytryptamine receptor 1B (Homo sapiens) (UniProt P28222); conditions: Compound concentration 10.0 uM
[26] = target: 5-hydroxytryptamine receptor 6 (Homo sapiens) (UniProt P50406); conditions: Compound concentration 10.0 uM
[27] = target: Mu-type opioid receptor (Homo sapiens) (UniProt P35372); conditions: Compound concentration 10.0 uM
[28] = target: Muscarinic acetylcholine receptor M1 (Homo sapiens) (UniProt P11229); conditions: Compound concentration 10.0 uM
[29] = target: 5-hydroxytryptamine receptor 2A (Homo sapiens) (UniProt P28223); conditions: Compound concentration 10.0 uM
[30] = target: Muscarinic acetylcholine receptor M4 (Homo sapiens) (UniProt P08173); conditions: Compound concentration 10.0 uM
[31] = target: T1, GABA-A receptor; anion channel (Rattus norvegicus) (UniProt O09028+P15431+P18506+P18508+P19969+P20236+P23574+P23576+P28471+P28473+P30191+P62813+P63079+P63138+Q91ZM7+Q9ES14); conditions: Compound concentration 10.0 uM
[32] = target: T1, GABA-A receptor; anion channel (Rattus norvegicus); conditions: Compound concentration 10.0 uM; remark: listed apart in the source
[33] = target: Alpha-1A adrenergic receptor (Homo sapiens) (UniProt P35348); conditions: Compound concentration 10.0 uM
[34] = target: Histamine H1 receptor (Homo sapiens) (UniProt P35367); conditions: Compound concentration 10.0 uM
[35] = target: Sodium-dependent noradrenaline transporter (Homo sapiens) (UniProt P23975); conditions: Compound concentration 10.0 uM
[36] = target: D(2) dopamine receptor (Homo sapiens) (UniProt P14416); conditions: Compound concentration 10.0 uM
[37] = target: Sigma intracellular receptor 2 (Homo sapiens) (UniProt Q5BJF2); conditions: Compound concentration 10.0 uM
Sigma intracellular receptor 2 (Homo sapiens), sequence (Q5BJF2 whole entry): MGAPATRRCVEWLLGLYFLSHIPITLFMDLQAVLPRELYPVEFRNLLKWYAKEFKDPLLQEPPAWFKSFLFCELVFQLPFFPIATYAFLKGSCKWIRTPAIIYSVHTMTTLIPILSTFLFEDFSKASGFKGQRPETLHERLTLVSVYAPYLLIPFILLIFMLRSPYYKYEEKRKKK

[38] = target: 5-hydroxytryptamine receptor 2C (Homo sapiens) (UniProt P28335); conditions: Compound concentration 10.0 uM
[39] = target: Muscarinic acetylcholine receptor M5 (Homo sapiens) (UniProt P08912); conditions: Compound concentration 10.0 uM
Muscarinic acetylcholine receptor M5 (Homo sapiens), sequence (P08912 whole entry): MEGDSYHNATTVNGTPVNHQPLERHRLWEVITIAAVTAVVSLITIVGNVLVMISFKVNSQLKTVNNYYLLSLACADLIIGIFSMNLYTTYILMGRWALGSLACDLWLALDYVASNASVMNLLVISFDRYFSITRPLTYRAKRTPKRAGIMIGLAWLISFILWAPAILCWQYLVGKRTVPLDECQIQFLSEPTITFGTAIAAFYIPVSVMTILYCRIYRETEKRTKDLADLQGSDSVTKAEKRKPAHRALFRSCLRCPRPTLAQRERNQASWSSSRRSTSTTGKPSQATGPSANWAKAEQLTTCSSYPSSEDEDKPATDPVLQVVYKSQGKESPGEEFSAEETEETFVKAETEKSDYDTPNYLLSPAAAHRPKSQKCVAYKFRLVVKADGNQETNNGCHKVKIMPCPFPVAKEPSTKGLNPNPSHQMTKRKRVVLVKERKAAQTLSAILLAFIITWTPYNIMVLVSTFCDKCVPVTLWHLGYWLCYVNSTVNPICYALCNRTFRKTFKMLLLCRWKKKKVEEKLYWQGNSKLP

[40] = target: Beta-2 adrenergic receptor (Homo sapiens) (UniProt P07550); conditions: Compound concentration 10.0 uM
[41] = target: Delta-type opioid receptor (Homo sapiens) (UniProt P41143); conditions: Compound concentration 10.0 uM
[42] = target: Sodium-dependent dopamine transporter (Homo sapiens) (UniProt Q01959); conditions: Compound concentration 10.0 uM
[43] = target: D(1B) dopamine receptor (Homo sapiens) (UniProt P21918); conditions: Compound concentration 10.0 uM
[44] = target: 5-hydroxytryptamine receptor 1A (Homo sapiens, UniProt P08908); assay: GPCRScan assay: inhibition of 5-HT1A; set-up: radioligand conc. used [nm] 0.5 – 1.0, parental cells stable CHO
[45] = target: 5-hydroxytryptamine receptor 5A (Homo sapiens) (UniProt P47898); conditions: Compound concentration 10.0 uM

5-hydroxytryptamine receptor 2B (Homo sapiens), sequence (P41595 whole entry): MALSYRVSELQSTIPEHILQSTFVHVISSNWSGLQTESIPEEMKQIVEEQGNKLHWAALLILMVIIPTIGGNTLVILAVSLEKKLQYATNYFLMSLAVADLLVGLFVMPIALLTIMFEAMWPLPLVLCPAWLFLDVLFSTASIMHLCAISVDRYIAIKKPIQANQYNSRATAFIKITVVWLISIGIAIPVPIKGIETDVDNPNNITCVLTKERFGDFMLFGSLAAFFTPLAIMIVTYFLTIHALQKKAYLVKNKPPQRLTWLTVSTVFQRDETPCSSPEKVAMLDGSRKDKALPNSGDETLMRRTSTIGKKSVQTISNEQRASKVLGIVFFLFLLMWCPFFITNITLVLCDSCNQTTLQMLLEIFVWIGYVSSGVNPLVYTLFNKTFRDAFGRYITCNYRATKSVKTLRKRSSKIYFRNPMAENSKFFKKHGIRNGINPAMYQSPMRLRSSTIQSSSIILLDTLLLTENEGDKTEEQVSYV
Muscarinic acetylcholine receptor M2 (Homo sapiens), sequence (P08172 whole entry): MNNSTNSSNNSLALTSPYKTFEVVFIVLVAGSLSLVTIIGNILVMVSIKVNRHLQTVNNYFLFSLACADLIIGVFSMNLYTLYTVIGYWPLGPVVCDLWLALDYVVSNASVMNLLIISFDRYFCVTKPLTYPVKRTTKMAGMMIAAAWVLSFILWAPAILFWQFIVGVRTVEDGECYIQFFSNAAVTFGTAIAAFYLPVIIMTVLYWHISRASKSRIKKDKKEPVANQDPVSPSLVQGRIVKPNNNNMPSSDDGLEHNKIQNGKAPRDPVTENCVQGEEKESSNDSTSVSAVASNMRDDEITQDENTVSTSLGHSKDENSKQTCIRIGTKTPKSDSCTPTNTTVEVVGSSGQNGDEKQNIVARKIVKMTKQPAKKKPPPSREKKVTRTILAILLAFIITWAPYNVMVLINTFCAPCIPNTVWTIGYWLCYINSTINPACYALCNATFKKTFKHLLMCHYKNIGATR

## CCNC(=O)c1cc2c(N3CCOC[C@@H]3C)ccnc2n1C
[1]
  inhibition: 7.19%
[2]
  inhibition: 2.79%
[3]
  inhibition: 38%
[4]
  inhibition: -6.16%
[5]
  inhibition: 5.51%
[6]
  inhibition: 24.5%
D(4) dopamine receptor; read-out: Ki
  Ki: 736 nM
D(4) dopamine receptor; read-out: pKi (converted)
  Ki: 708 nM
[7]
  inhibition: -9.19%
[8]
  inhibition: 9.36%
[9]
  inhibition: -8.1%
[10]
  inhibition: -2.44%
[11]
  IC50: > 20000 nM (not active)
[12]
  inhibition: 16.9%
[13]
  inhibition: -1.88%
[14]
  inhibition: 18.6%
[15]
  inhibition: 5.71%
[16]
  inhibition: -3.91%
[17]
  inhibition: 14.6%
[18]
  inhibition: -0.31%
Rattus norvegicus
  inhibition: 17.2%
[19]
  Ki: 224 nM
  pKi: 6.72
[20]
  inhibition: -1.28%
[21]
  inhibition: 12.1%
[22]
  inhibition: -1.21%
[23]
  inhibition: 14.2%
[24]
  inhibition: 77.6%
[25]
  inhibition: -8.46%
[26]
  inhibition: 31.9%
[27]
  inhibition: 0.08%
[28]
  inhibition: 11.9%
[29]
  inhibition: -1.68%
[30]
  inhibition: 5.75%
[31]
  inhibition: -1.39%
[32]
  inhibition: 84.2%
[33]
  inhibition: 3.94%
[34]
  inhibition: 26%
[35]
  inhibition: 5.35%
[36]
  inhibition: -1.89%
[37]
  inhibition: 30.4%
[38]
  inhibition: 46.2%
[39]
  inhibition: -0.9%
[40]
  inhibition: 27.3%
[41]
  inhibition: 2.73%

## CCNC(=O)c1cc2c(N3CCOC[C@@H]3C)ccnc2[nH]1
[1]
  inhibition: -1.26%
[2]
  inhibition: 47.1%
[4]
  inhibition: 40.5%
[5]
  inhibition: 0.0286%
[6]
  inhibition: 24.3%
[42]
  inhibition: 25.5%
[43]
  inhibition: 34.3%
[44]
  Ki: 10000 nM
[7]
  inhibition: 14.3%
[8]
  inhibition: 10.6%
[9]
  inhibition: 8.58%
[10]
  inhibition: 34.4%
[12]
  inhibition: 18.1%
[13]
  inhibition: 69.8%
[14]
  inhibition: -1.37%
[15]
  inhibition: -2.4%
[45]
  inhibition: -8.05%
[16]
  inhibition: 1.31%
[17]
  inhibition: 13.1%
[18]
  inhibition: -7.55%
Rattus norvegicus
  inhibition: 30.1%
[19]
  Ki: 1530 nM
[20]
  inhibition: 3.16%
[21]
  inhibition: -7.82%
[22]
  inhibition: -4.45%
[23]
  inhibition: 1.92%
[24]
  inhibition: -3.84%
[25]
  inhibition: -1.66%
[26]
  inhibition: -8.52%
[27]
  inhibition: 24.8%
[28]
  inhibition: 21.7%
[29]
  inhibition: -7.89%
[31]
  inhibition: 28.2%
[32]
  inhibition: 57.3%
[33]
  inhibition: 1.88%
[34]
  inhibition: 4.94%
[35]
  inhibition: 40.2%
[36]
  inhibition: 12.3%
[37]
  inhibition: 34.6%
[38]
  inhibition: -4.02%
[39]
  inhibition: -4.95%
[40]
  inhibition: -6.09%
[41]
  inhibition: -0.04%
